Reference: patent US9365572B2, “PI3K and/or mTOR inhibitor” (XUANZHU PHARMA CO., LTD., priority 2012, dated 2016)

Assays:
Experiment in all cases: Kinase selectivity, Mobility shift assay
Format in all cases: biochemical
DYRK1b = DYRK1b (Homo sapiens (Human), UniProt Q9Y463)
Procedure: (§1) Object: In this assay, the inhibitory activity of the test substance on the kinases listed in Table 3 was determined, and therefore the selectivity of the present compound was determined.
(§2) Except for the BRAF V600E kinase in Table 3, the Mobility shift assay was used for other kinases.
(§3) 1. Preparation of Agents:
(§4) • 1.1 1-fold kinase buffer without MnCl2: 50 mM HEPES, pH 7.5, 0.0015% Brij-35, 10 mM MgCl2, 2 mM DTT. • 1.2 1-fold kinase buffer with MnCl2: 50 mM HEPES, pH 7.5, 0.0015% Brij-35, 10 mM MgCl2, 10 mM MnCl2, 2 mM DTT. • 1.3 Termination solution: 100 mM HEPES, pH 7.5, 0.0015% Brij-35, 0.2% Coating Reagent#3, 50 mM EDTA. • 1.4 2.5-fold kinase solution: The kinase was added to the 1-fold kinase buffer to form a 2.5-fold kinase solution. • 1.5 2.5-fold substrate solution: FAM fluorescence-labelled polypeptide and ATP were added to the 1-fold kinase buffer to form a 2.5-fold substrate solution. 2. Preparation of 5-fold compound
(§5) The final test concentration of the compound was 10 μM at maximum. Firstly, a 50-fold concentration (i.e. 500 μM) was prepared with 100% DMSO. The compound was diluted with 100% DMSO by 5 folds at 5 concentrations (successively 500 μM, 100 μM, 20 μM, 4 μM, and 0.8 μM). After diluting with 1-fold kinase buffer by 10 folds, 5 μl of the samples were transferred to a 384-well reaction plate. Two negative control wells and two positive control wells were set at each line respectively. Replication was made in a 96-well plate in five concentrations of 5-fold compound. 10% DMSO was added to the positive control well, and 5 μl of EDTA (250 mM) was added to the negative control well.
(§6) • 3.1 To the 384-well reaction plate was added 5-fold compound dissolved in 10% DMSO at 5 μl/well. • 3.2 To the 384-well reaction plate was added 2.5-fold kinase solution at 10 μl/well. The plate was incubated at room temperature for 10 mins. • 3.3 To the 384-well reaction plate was added 2.5-fold substrate solution at 10 μl/well. The plate was incubated at 28° C. for a certain period. • 3.4 25 μl termination solution was added to terminate the reaction. The conversion was read from Caliper. 4. Inhibition rate calculation Inhibition rate (%)=(maximum−sample value)/(maximum−minimum)×100 • wherein: • maximum refers to the conversion at the DMSO control well, • minimum refers to the conversion at the control well without kinase. Lanthascreen Analysis Method for the BRAF V600E Kinase 1. Preparation of Agents: • 1.1 2-fold kinase solution: using 1-fold kinase buffer to prepare 2-fold kinase solution, with a final concentration of 0.35 nM of BRAFV600E; • 1.2 4-fold substrate solution: using 1-fold kinase buffer to prepare 4-fold substrate solution, with a final substrate solution concentration of 0.2 μM of Fluorescein-MAP2K1 and 1.5 μM of ATP. 2. Preparation of 4-fold compound • The final test concentration of the compound was 10 μM at maximum. Firstly, a 100-fold concentration (i.e. 1000 μM) was prepared with 100% DMSO. The compound was diluted with 100% DMSO by 5 folds at 5 concentrations. The compound series was identical to that in the Mobility Shift Assay. After diluting with 1-fold kinase buffer by 25 folds, the resulting samples were shaked and mixed evenly on a plate-shaker for 10 mins. 3. Procedure • 3.1 To the 384-well reaction plate was added 4-fold compound dissolved in 10% DMSO at 2.5 µl/well; • 3.2 To the 384-well reaction plate was added 2-fold kinase solution at 5 μl/well, and to the negative control wells were added 1-fold kinase buffer. The samples were shaked, mixed evenly, and kept standing at room temperature. • 3.3 To the 384-well reaction plate was added 4-fold substrate solution at 2.5 μl/well. The plate was reacted, shaked, mixed evenly and incubated at room temperature for one hour; • 3.4 Reaction result detection: 2-fold detection solution was prepared, with a final concentration of 2 nM of Antibody and 10 mM of EDTA. 10 μl of the detection solution was transferred to the 384-well plate to terminate the reaction. […]

AMPKa1 = AMPKa1 (Homo sapiens (Human), UniProt Q13131)
Sequence of AMPKa1 (Q13131 whole entry): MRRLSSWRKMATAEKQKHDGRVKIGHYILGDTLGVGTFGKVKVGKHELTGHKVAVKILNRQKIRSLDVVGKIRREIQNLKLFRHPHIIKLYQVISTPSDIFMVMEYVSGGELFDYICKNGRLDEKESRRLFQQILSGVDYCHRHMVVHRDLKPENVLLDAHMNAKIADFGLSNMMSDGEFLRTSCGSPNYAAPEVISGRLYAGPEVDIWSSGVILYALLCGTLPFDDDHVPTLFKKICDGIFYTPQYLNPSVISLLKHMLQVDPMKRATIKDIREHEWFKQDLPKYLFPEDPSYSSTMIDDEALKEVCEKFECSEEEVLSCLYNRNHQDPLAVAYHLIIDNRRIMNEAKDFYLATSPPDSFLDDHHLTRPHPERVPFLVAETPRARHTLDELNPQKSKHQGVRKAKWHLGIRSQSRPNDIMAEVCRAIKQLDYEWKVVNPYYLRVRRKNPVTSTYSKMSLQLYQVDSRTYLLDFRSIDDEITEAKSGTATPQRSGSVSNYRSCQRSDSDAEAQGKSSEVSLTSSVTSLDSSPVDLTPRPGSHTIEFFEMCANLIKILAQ
Sequence of AMPKa1 (Q9Y478 whole entry partner): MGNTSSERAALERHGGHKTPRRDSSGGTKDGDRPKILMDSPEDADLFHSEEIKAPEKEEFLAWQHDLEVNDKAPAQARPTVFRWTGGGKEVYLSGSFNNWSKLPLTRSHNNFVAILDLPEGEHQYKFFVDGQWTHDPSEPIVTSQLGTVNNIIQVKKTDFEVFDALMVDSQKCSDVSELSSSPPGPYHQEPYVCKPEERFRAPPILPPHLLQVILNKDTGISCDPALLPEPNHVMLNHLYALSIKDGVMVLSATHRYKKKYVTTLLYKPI
Sequence of AMPKa1 (P54619 whole entry partner): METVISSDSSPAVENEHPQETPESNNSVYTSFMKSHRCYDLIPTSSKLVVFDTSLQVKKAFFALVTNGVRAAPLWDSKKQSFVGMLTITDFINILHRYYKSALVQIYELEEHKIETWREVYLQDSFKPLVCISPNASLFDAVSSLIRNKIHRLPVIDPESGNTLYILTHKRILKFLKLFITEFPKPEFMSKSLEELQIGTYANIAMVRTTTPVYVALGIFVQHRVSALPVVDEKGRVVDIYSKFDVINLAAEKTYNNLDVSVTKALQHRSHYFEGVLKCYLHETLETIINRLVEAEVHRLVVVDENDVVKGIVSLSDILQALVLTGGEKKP
Procedure: as §1, §2, §3, §4, §5, §6

PDGFRb = PDGFRb (Homo sapiens (Human), UniProt P09619)
Procedure: as §1, §2, §3, §4, §5, §6

LYNa = LYNa (Homo sapiens (Human), UniProt P07948)
Procedure: as §1, §2, §3, §4, §5, §6

FGFR1 = FGFR1 (Homo sapiens (Human), UniProt P11362)
Procedure: as §1, §2, §3, §4, §5, §6

PAK2 = PAK2 (Homo sapiens (Human), UniProt Q13177)
Procedure: as §1, §2, §3, §4, §5, §6

ALK = ALK (Homo sapiens (Human), UniProt Q9UM73)
Procedure: as §1, §2, §3, §4, §5, §6

SRC = SRC (Homo sapiens (Human), UniProt P12931)
Sequence of SRC (P12931 whole entry, looked up, species assumed): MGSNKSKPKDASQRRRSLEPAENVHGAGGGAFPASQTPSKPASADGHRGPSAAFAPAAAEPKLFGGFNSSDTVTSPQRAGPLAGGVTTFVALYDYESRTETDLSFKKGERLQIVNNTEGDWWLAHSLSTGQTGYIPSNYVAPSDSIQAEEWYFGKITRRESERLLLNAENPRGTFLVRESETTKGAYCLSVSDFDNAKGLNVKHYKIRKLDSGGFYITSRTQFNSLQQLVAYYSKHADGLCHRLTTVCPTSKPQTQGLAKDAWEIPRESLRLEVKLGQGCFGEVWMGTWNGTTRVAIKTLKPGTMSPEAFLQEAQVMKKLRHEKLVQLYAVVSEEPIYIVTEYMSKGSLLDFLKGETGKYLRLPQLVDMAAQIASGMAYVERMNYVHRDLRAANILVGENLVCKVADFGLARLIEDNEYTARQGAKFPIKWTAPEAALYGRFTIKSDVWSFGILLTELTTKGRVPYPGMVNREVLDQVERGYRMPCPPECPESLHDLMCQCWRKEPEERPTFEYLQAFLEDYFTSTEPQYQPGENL
Procedure: as §1, §2, §3, §4, §5, §6

CDK2 = CDK2 (Homo sapiens (Human), UniProt P24941)
Procedure: as §1, §2, §3, §4, §5, §6

CHK1 = CHK1 (Homo sapiens (Human), UniProt O14757)
Procedure: as §1, §2, §3, §4, §5, §6

MARK1 = MARK1 (Homo sapiens (Human), UniProt Q9P0L2)
Sequence of MARK1 (Q9P0L2 whole entry, species assumed): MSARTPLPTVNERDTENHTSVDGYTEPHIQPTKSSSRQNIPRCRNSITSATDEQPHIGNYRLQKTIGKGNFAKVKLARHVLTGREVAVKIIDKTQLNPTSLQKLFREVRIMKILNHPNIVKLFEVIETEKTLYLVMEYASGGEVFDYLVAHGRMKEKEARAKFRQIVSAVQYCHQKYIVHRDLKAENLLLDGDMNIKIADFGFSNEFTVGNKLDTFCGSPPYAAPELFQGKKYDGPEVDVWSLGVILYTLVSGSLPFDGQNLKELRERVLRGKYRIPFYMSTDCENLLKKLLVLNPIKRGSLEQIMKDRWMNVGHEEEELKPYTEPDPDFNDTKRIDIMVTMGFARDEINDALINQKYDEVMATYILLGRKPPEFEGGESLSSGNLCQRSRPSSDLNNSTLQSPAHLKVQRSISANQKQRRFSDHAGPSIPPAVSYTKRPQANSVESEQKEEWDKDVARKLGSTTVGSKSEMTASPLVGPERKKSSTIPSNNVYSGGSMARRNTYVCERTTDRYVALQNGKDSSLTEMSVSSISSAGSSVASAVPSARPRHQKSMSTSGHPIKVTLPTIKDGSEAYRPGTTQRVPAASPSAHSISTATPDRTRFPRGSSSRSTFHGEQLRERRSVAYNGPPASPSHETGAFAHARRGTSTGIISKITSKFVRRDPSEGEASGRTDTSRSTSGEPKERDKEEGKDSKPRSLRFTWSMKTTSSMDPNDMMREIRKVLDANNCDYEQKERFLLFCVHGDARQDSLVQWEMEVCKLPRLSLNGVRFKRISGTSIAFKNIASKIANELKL
Procedure: as §1, §2, §3, §4, §5, §6

AKT1 = AKT1 (Homo sapiens (Human), UniProt P31749)
Sequence of AKT1 (P31749 whole entry, species assumed): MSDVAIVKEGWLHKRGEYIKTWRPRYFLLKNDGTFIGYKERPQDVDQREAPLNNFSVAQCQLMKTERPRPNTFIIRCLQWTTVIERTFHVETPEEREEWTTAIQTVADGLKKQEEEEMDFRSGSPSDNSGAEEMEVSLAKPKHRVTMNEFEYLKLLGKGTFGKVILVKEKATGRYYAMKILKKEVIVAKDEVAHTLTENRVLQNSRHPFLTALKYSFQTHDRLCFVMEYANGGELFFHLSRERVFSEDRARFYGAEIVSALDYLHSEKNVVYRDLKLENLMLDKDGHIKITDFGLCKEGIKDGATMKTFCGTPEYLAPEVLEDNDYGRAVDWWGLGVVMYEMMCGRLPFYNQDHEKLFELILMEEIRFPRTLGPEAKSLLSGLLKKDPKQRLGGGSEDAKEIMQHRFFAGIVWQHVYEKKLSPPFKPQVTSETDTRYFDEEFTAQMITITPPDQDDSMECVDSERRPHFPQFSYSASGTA
Procedure: as §1, §2, §3, §4, §5, §6

ZAP70 = ZAP70 (Homo sapiens (Human), UniProt P43403)
Procedure: as §1, §2, §3, §4, §5, §6

p38a = p38a (Homo sapiens (Human), UniProt Q16539)
Sequence of p38a (Q16539 whole entry): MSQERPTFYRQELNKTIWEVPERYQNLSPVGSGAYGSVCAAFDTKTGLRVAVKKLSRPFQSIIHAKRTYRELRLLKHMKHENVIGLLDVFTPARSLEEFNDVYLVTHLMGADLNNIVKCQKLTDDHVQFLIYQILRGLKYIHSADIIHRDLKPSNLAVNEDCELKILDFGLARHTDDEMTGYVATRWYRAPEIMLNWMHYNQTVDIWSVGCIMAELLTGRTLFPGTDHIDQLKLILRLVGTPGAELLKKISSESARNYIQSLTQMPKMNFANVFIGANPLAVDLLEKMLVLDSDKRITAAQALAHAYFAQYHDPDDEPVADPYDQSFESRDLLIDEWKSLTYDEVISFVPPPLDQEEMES
Procedure: as §1, §2, §3, §4, §5, §6

CSK = CSK (Homo sapiens (Human), UniProt P41240)
Sequence of CSK (P41240 whole entry, species assumed): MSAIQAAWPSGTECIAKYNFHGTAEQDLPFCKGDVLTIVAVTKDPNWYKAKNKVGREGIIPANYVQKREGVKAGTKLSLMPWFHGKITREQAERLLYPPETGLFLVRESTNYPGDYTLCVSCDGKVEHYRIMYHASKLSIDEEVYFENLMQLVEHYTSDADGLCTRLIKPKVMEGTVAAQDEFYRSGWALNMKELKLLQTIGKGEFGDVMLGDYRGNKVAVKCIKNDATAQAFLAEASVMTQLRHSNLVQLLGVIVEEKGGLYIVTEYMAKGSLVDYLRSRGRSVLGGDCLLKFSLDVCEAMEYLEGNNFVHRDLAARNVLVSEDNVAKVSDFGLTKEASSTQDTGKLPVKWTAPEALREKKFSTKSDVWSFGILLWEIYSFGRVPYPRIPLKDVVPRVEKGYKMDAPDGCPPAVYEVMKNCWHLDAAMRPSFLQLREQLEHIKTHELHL
Procedure: as §1, §2, §3, §4, §5, §6

CKIT = CKIT (Homo sapiens (Human), UniProt P10721)
Procedure: as §1, §2, §3, §4, §5, §6

SGK = SGK (Homo sapiens (Human), UniProt O00141)
Procedure: as §1, §2, §3, §4, §5, §6

CAMK2a = CAMK2a (Homo sapiens (Human), UniProt Q9UQM7)
Procedure: as §1, §2, §3, §4, §5, §6

MAPKAPK2 = MAPKAPK2 (Homo sapiens (Human), UniProt P49137)
Sequence of MAPKAPK2 (P49137 whole entry, species assumed): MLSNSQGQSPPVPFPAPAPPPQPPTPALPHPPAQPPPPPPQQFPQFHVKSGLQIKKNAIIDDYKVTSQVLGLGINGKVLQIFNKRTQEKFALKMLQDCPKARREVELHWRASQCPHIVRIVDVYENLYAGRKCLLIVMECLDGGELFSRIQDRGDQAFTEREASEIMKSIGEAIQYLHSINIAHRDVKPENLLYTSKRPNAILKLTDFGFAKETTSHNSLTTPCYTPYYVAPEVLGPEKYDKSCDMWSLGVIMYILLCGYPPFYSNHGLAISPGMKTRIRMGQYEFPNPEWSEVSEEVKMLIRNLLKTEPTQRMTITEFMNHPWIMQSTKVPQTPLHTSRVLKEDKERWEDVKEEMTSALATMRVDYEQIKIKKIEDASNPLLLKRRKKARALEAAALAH
Procedure: as §1, §2, §3, §4, §5, §6

Sequence of DYRK1b (Q9Y463 whole entry, species assumed): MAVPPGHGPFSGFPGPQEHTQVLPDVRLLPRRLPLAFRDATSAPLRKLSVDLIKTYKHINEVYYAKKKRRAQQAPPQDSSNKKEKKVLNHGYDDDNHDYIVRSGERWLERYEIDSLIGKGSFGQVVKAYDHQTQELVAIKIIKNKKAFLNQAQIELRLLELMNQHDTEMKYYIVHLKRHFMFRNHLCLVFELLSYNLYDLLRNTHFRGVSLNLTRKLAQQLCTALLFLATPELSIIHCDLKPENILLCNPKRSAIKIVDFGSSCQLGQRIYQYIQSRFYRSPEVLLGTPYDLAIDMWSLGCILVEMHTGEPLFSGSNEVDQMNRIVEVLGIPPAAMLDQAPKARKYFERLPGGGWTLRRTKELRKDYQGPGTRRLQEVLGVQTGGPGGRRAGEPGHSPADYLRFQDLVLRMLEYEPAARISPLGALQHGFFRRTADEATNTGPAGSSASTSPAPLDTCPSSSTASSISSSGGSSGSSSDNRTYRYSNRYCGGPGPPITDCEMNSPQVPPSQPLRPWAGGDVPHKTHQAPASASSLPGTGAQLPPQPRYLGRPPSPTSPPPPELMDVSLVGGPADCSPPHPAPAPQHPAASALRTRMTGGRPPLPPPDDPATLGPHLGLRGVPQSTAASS

SMILES: Nc1ccc(-c2ccc3ncc4c(=O)[nH]c(=O)n(-c5cccc(C(F)(F)F)c5)c4c3n2)cn1 [Compound 5, 9-(6-aminopyridin-3-yl)-1-(3-(trifluoromethyl)phenyl)pyrimido[5,4-c][1,5]naphthyridine-2,4(1H,3H)-dione]
- IC50 (DYRK1b): > 10000 nM
- IC50 (AMPKa1): > 10000 nM
- IC50 (PDGFRb): > 10000 nM
- IC50 (LYNa): 1370 nM
- IC50 (FGFR1): > 10000 nM
- IC50 (PAK2): > 10000 nM
- IC50 (ALK): 1170 nM
- IC50 (SRC): 842 nM
- IC50 (CDK2): > 10000 nM
- IC50 (CHK1): > 10000 nM
- IC50 (MARK1): > 10000 nM
- IC50 (AKT1): > 10000 nM
- IC50 (ZAP70): > 10000 nM
- IC50 (p38a): > 10000 nM
- IC50 (CSK): > 10000 nM
- IC50 (CKIT): > 10000 nM
- IC50 (SGK): > 10000 nM
- IC50 (CAMK2a): > 10000 nM
- IC50 (MAPKAPK2): > 10000 nM
